biological target: Carbonic anhydrase 5A, mitochondrial (Homo sapiens, UniProt P35218)
Sequence (P35218 whole entry): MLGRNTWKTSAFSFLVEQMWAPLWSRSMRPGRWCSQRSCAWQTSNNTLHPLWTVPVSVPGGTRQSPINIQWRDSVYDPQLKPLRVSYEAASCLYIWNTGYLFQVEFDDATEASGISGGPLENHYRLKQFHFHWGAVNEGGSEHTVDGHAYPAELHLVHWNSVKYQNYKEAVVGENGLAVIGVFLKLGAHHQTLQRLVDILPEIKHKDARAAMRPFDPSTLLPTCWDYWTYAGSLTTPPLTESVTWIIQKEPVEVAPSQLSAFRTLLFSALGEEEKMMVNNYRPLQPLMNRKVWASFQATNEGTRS

| Ki | SMILES |
| --- | --- |
| 7.2 nM | NS(=O)(=O)c1ccc(NC(=O)Cc2cccs2)cc1 |
| 9.1 nM | NS(=O)(=O)c1ccc(CNC(=O)Cc2cccs2)cc1 |
| 6.7 nM | NS(=O)(=O)c1ccc(NC(=O)Cc2ccccc2)cc1 |
| 10.2 nM | NS(=O)(=O)c1ccc(CCNC(=O)Cc2cccs2)cc1 |

biological target: Carbonic anhydrase 5B, mitochondrial (Homo sapiens, UniProt Q9Y2D0)
Sequence (Q9Y2D0 whole entry): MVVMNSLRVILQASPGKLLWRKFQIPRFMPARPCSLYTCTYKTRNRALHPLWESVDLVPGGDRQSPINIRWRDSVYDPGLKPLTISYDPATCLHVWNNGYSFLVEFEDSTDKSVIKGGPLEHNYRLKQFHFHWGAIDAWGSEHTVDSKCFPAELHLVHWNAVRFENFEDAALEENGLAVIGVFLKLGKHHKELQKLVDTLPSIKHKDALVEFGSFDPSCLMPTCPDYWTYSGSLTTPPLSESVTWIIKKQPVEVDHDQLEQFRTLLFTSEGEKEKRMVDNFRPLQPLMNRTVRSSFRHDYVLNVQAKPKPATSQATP

| Ki | SMILES |
| --- | --- |
| 7 nM | NS(=O)(=O)c1ccc(NC(=O)Cc2cccs2)cc1 |
| 7.2 nM | NS(=O)(=O)c1ccc(CNC(=O)Cc2cccs2)cc1 |
| 7.9 nM | NS(=O)(=O)c1ccc(NC(=O)Cc2ccccc2)cc1 |
| 8 nM | NS(=O)(=O)c1ccc(CCNC(=O)Cc2cccs2)cc1 |

From ChEMBL document CHEMBL1154094, “Carbonic anhydrase inhibitors. Aromatic/heterocyclic sulfonamides incorporating phenacetyl, pyridylacetyl and thienylacetyl tails act as potent inhibitors of human mitochondrial isoforms VA and VB” (Bioorg Med Chem, 2009)
